From publication PMC11096398, “Chemical and biophysical characterization of novel potassium channel blocker 3-fluoro-5-methylpyridin-4-amine” (Scientific Reports, 2024)
“And” between values parts separate entries of the source, which are not always exact repeats. Equal values may be shown once. Read-outs that look alike come from different tables or passages of the source.

Legend:
[1] = pKa determination by titration with HCl (Gran plot); type: physicochemical; settings: n = 4
Procedure: The pKa was determined using titration according to our previously described protocol. A 1 mg/mL solution of 5Me3F4AP was prepared, of which 5 ml was titrated with 0.01 M HCl solution beyond the equivalence point. After each incremental addition of titrant, the sample was stirred and the pH reading was taken with a pH meter. The Gran plot of the titration was analyzed to obtain the pKa (see the plot in Supporting Information, Fig. S3). […] The titration was repeated four times each for each compound.

[2] = octanol-water partition coefficient (logD) at pH 7.4; type: physicochemical
Procedure: The octanol–water partition coefficient (logD) at pH 7.4 was determined according to our previous reported protocol. Briefly, PBS (900 μL), 1-octanol (900 μL), and a 10 mg/ mL aqueous solution of each compound (2 μL) were added to a 2 mL HPLC vial. The compounds were partitioned between the layers via vortexing and centrifuged at 1000 g for 1 min to allow for phase separation. A 10 μL portion was taken from each layer (autoinjector was set up to draw volume at two different heights) and analyzed by HPLC. The relative concentration in each phase was determined by integrating the area under each peak and comparing the ratio of the areas from the octanol and aqueous layers. A calibration curve was performed to ensure that the concentrations detected were within the linear range of the detector (see Figs. S1 and S2 in Supporting Information). This procedure was repeated four times for each compound.

[3] = parallel artificial membrane permeability assay-blood-brain barrier (BBB) kit; type: in vitro ADME; settings: PAMPA-BBB; for Papp at 18 h, 500 µM: PBS pH 7.2, 18 h, n = 3, read-out: permeability to an artificial brain membrane (Pe)
Procedure: The permeability rates of 5Me3F4AP and derivatives were determined using parallel artificial membrane permeability assay-blood–brain barrier (BBB) kit (BioAssay systems, Hayward, USA) following the manufacturer’s protocol. Initially, solutions of each test compound were prepared in DMSO at a concentration of 10 mM. These stock solutions along with the stock solutions of control compounds (high control: promazine hydrochloride, low control: diclofenac) were then diluted with PBS (pH = 7.2) to obtain the donor solutions with a final concentration of 500 μM. At the same time, 200 μM of equilibrium standards for each compound and a DMSO blank control solution were prepared.
In the experimental setup, 300 μL of PBS was added to the desired well of the acceptor plate, and 5 μL of BBB lipid solution in dodecane was added to membranes of the donor plate. Next, 200 μL of the donor solutions of each test compound and each permeability control were added to the duplicate wells of the donor plate. The donor plate was carefully placed on the acceptor plate and incubator for 18 h at room temperature. After incubation, UV absorption measurements were conducted using 100 μL of the resulting solutions from the acceptor plate and the equilibrium standards. UV absorption of the controls was measured by running a UV scan in the range of 200–500 nm. UV absorption of 5Me3F4AP and derivatives was measured using HPLC equipped with a UV detector and C18 column.

[4] = molecular target: T1, Shaker voltage-gated potassium channel (Drosophila melanogaster, UniProt P08510); assay: cut-open voltage clamp electrophysiology of K+ currents in Xenopus laevis oocytes expressing Shaker; type: cell-based, D. melanogaster
T1 sequence (P08510 whole entry): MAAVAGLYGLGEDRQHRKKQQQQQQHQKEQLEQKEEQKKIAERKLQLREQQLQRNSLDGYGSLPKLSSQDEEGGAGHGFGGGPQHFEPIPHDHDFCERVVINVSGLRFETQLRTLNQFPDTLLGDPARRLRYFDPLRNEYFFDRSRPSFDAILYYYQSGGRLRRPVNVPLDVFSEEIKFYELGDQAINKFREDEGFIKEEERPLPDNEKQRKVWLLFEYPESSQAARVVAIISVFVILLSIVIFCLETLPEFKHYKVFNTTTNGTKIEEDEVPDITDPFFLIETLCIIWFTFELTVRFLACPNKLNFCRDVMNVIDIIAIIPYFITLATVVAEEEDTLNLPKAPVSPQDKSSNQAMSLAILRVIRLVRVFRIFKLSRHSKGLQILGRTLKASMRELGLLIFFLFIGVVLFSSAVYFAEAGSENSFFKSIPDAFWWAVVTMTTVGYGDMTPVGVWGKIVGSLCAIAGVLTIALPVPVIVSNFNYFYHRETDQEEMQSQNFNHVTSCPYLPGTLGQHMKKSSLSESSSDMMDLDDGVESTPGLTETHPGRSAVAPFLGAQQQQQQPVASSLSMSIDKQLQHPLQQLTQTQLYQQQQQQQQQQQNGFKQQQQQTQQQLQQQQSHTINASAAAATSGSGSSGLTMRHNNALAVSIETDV
Procedure: Blocking potency of 5Me3F4AP was evaluated on the voltage-gated Shaker (homologous to mammalian Kv1.2) ion channel expressed in Xenopus laevis oocytes, as previously described. Briefly, each oocyte expressing the Shaker channel was voltage-clamped in a cut-open voltage clamp (COVC) station in order to elicit K^+ currents in response to the voltage stimulus protocol, which entailed steps of 50 ms from − 100 to 60 mV in increments of 10 mV. For COVC measurements, the external recording solution was composed (in mM) of 12 KOH, 2 Ca(OH)2, 105 NMDG-MES (N-methyl-D-glucamine)-methylsufonate, 20 HEPES (4-(2-hydroxyethyl)-1-piperazineethanesulfonic acid). The internal recording solution was composed of 120 KOH, 2 EGTA (ethylene glycol-bis(β-aminoethyl ether)-N,N,N,N-tetraacetic acid), and 20 HEPES. […] Each pH solution was adjusted with MES (2-(N-morpholino)ethanesulfonic acid). For measurements at pH = 9.1, HEPES was substituted by CHES (2-(cyclohexylamino)-ethanesulfonic acid). Each oocyte expressing the Shaker ion channel was voltage-clamped to record K^+ currents, first in the absence of 5Me3F4AP, and subsequently with the addition of 5Me3F4AP, from 0.0001 to 10 mM. Relative current (Irel) was quantified as the […] of the indicated concentration of 5Me3F4AP. Finally, K^+ currents were amplified with the oocyte clamp amplifier CA-1A (Dagan Corporation, Minneapolis, MN, USA) and digitized with the USB-1604-HS-2AO Multifunction Card (Measurement Computing, Norton, MA, USA). All systems were controlled with the GpatchMC64 program (department of anesthesiology, UCLA, Los Angeles, CA, USA) via a PC. Electrophysiology recordings were sampled at 100 kHz and filtered at 10 kHz.
Data analysis was performed as previously described. Briefly, the half-maximal inhibitory concentration of 5Me3F4AP (IC50) was determined by fitting the Irel curve to the Hill equation at each value of V and pH.
Mean values of data ± standard deviation (s.d.) are given or plotted and the number of experiments is denoted by n. Upper and lower limits of the 95% of confidence interval (CI95) are denoted as 10^logIC50+s.d and 10^logIC50-s.d , respectively.

CYP2E1 = CYP2E1 (Homo sapiens, UniProt P05181); assay: competitive CYP2E1 inhibition assay (Vivid CYP2E1 screening kit)
Chain of CYP2E1 (P05181 whole entry): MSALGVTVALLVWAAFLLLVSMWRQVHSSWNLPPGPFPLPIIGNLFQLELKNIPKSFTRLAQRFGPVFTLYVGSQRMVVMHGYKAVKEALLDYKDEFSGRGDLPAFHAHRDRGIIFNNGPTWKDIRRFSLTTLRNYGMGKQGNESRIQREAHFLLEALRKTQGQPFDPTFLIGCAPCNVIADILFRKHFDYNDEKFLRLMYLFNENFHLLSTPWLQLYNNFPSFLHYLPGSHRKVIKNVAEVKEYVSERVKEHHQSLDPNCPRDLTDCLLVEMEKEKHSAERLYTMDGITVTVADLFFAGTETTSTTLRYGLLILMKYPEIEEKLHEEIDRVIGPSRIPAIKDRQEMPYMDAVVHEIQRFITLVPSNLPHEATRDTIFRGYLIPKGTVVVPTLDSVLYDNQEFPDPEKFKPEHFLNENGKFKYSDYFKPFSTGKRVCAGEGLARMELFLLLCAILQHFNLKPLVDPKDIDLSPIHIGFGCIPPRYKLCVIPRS
Procedure: The relative metabolic stability towards CYP2E1 was assessed with the competitive CYP2E1 inhibition assay utilizing the life technologies™ vivid® CYP2E1 screening kit, as described in previous studies. In this assay, fluorescence emitted by the metabolic product of a specific CYP2E1 substrate included in the kit, was measured in the absence and presence of substrate competitors.
Afterwards, 50 µL master pre-mix 2× (40 nM) CYP2E1 BACULOSOMES® and 2× (0.6 units/mL) vivid® regeneration system in 1× reaction buffer) was added to each well. The plate was incubated for 10 min at room temperature to allow the compounds to interact with the CYP2E1 in the absence of enzyme turnover. Next, the reaction was initiated by adding 10 µL per well of 10× (100 μM) Vivid® substrate (2H-1-benzopyran-3-carbonitrile,7-(ethoxy-methoxy)-2-oxo-(9Cl)) and 10× (300 μM) Vivid® NADP^+ mixture. Immediately (in less than 2 min), the plate was transferred into the fluorescent plate reader and fluorescence was monitored over 60 min (reads in 1 min intervals) at 415 nm as excitation wavelength and 460 nm as emission wavelength. The obtained reads were plotted using GraphPad Prism 9.
A similar vivid® CYP2E1 assay was conducted as described above. […] The plate fluorescence was monitored over 60 min (reads in 1 min intervals) at 415 nm as excitation wavelength and 460 nm as emission wavelength. The reads at 60 min (recalculated by the linear trend line equation) of each concentration were used and fitted with GraphPad Prism9 dose-response-inhibition (concentration is log) curve fitting with weighting method (weighted by 1/Y^2) to calculate the IC50 values. A similar procedure was used for determining the IC50 of 3F4AP.

[5] = molecular target: T1, Shaker voltage-gated potassium channel; settings: cited from earlier work; for δ ± s.d. (electric fraction): pH 7.4, reported previously ref 35; for IC50: pH 7.4, Hermann equation, reported previously ref 35, read-out: IC50 (at V=0) ± s.d.
[6] = cited from earlier work
[7] = cited from earlier work; remark: listed apart in the source
[8] = cited from earlier work; remark: listed apart in the source
[9] = set-up: method as in PMID 33090071; settings: monkeys, 2 h post injection ref 26; cited from earlier work
[10] = set-up: method as in PMID 38690718; settings: 35 min post-injection, cited from earlier work
[11] = final concentration 25 µM, 60 min kinetic measurement
[12] = compound solution titrated with 0.01 M HCl

Structure (SMILES) | pKa [1] | Papp at 18 h, 500 µM [3] | δ ± s.d. (electric fraction) ([4]; pH 9.1) | reduction in fluorogenic emission / reaction rate vs. blank (CYP2E1; [11]) | pKa [1, 12] | δ ± s.d. (electric fraction) [4] | δ ± s.d. (electric fraction) [5] | change of IC50 when pH was increased to 9.1 [4] | IC50 ([4]; IC50 (at V=0) ± s.d.) | IC50 [5] | also measured
Cc1cncc(F)c1N [5Me3F4AP, 3-fluoro-5-methylpyridin-4-amine] | 7.46 ± 0.01 | 8.81 ± 1.83 ×10⁻⁶ cm/s | 0.40 ± 0.04 | reaction rate between 4AP and 3F4AP | – | – | – | – | – | – | logD ([2]; 1-octanol/PBS, pH 7.4, pH 7.4, n = 4): 0.664 ± 0.005; logD (octanol/water partition coefficient) ([2]; pH 7.4, n = 4): 0.66; permeation rate relative to 3F4AP [3]: approximately three times faster than 3F4AP; block of Shaker K+ currents ([4]; 1 mM, pH 6.4, 7.4 and 9.1): efficiently blocks the channels; Hill parameter h ([4]; Hill fit at 40 mV, all experimental conditions): ≈ 1; change of IC50 when pH was increased to 9.1 ([4]; IC50 at 40 mV, Hill equation): increased around three-fold; δ ± s.d. (electric fraction) ([4]; pH 6.4): 0.39 ± 0.04; IC50 ([4]; pH 6.4, Hermann equation, read-out: IC50 (at V=0) ± s.d.): 118 ± 17 µM; δ ± s.d. (electric fraction) ([4]; pH 7.4): 0.40 ± 0.02; IC50 ([4]; pH 7.4, Hermann equation, read-out: IC50 (at V=0) ± s.d.): 161 ± 25 µM; blocking potency compared with related compounds ([4]; pH 7.4, IC50 at 40 mV): very similar to that of 4AP and 3F4AP; IC50 ([4]; pH 9.1, Hermann equation, read-out: IC50 (at V=0) ± s.d.): 373 ± 84 µM; δ value (electric fraction) ([4]; pH not specified): ~0.4; IC50 at 60 min (CYP2E1; human, recombinant CYP2E1 BACULOSOMES (Vivid CYP2E1 screening kit), IC50 for CYP2E1 inhibition, reads at 60 min, three replicates): 36.2 ± 2.5 µM; CYP2E1-mediated oxidation rate relative to 3F4AP (CYP2E1; kinetic measurement): about two times slower than 3F4AP
Nc1ccncc1 [4AP, 4-aminopyridine] | – | – | 0.41 ± 0.05 | minor reduction in fluorogenic emission | > 9 | 0.41 ± 0.06 | 0.41 ± 0.08 | – | – | – | pKa ([1]; solution of the compound titrated with 0.01 M HCl): 9.19; parent fraction in plasma ([6]; 24 h post oral administration ref 42): ~ 70%
Nc1ccncc1F [3F4AP, 3-fluoro-4-aminopyridine] | 7.37 ± 0.07 | 3.11 ± 0.29 ×10⁻⁶ cm/s | 0.52 ± 0.02 | substantial decrease in rate | – | 0.41 ± 0.03 | 0.46 ± 0.10 | increased around three-fold | 159 µM and 65 µM | 122 ± 4 µM | IC50 (CYP2E1; human, IC50 for CYP2E1 inhibition, reads at 60 min, three replicates): 15.4 ± 5.1 µM
Nc1ccncc1[18F] [[^18F]3F4AP, [^18F]3-fluoro-4-aminopyridine] | – | – | – | – | – | – | – | – | – | – | pKa [7]: 7.65; logD [8]: 0.41; plasma parent fraction (PPF) [9]: > 90%; plasma parent fraction (PPF) ([10]; anesthetized mice (isoflurane), n = 10 ref 29): 74.8 ± 1.6; plasma parent fraction (PPF) ([10]; awake mice, n = 11 ref 29): 17.7 ± 1.7; plasma parent fraction (PPF) remaining ([6]; humans, 30 min post injection ref 27): < 50%
N[C@@H]1C[C@H]1c1ccccc1 (racemic) [tranylcypromine] | – | – | – | – | – | – | – | – | – | – | reduction in fluorogenic emission / reaction rate vs. blank (CYP2E1): most pronounced reduction in fluorogenic emission
Cc1cnccc1N [3Me4AP, 3-methyl-4AP] | – | – | 0.47 ± 0.03 | – | > 9 | 0.28 ± 0.10 | 0.43 ± 0.10 | three-fold | 44 µM and 10 µM | 21 ± 1 µM | –
